Drawing on PubChem BioAssay (NCI), this text covers GI50 and TGI for nine compounds.

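Each compound was tested at five concentrations against cells in 96-well plates for 48 hours. GI50 is the concentration that inhibits growth by half. TGI denotes the concentration required for complete inhibition of growth.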

Some test systems named below: A498 renal; ACHN renal; CCRF-CEM leukemia; HOP-92 NSCLC; HT29 colon; OVCAR-3 ovarian; RPMI-8226 leukemia; RXF 393 renal; SK-MEL-28 melanoma; TK-10 renal.
Common to all, as to test: DTP human tumour cell line panel, 48 h

On to `C#CCOc1c(OC)cc(C(=O)/C(C)=C/c2cccc(N=[N+]=[N-])c2)cc1OC`, for which the GI50 is 0.151 µM in the test on A498 renal; 0.682 µM with ACHN renal; 0.117 µM in the test on CCRF-CEM leukemia; 0.196 µM with HOP-92 NSCLC; 0.0576 µM in the test on HT29 colon; 0.0519 µM in the test on OVCAR-3 ovarian. Moreover, the GI50 in the test with RPMI-8226 leukemia was 0.255 µM; in the test with RXF 393 renal, 0.25 µM; in the test with SK-MEL-28 melanoma, 29 µM; with TK-10 renal, 0.325 µM. Further, the TGI was 0.714 µM in the test on A498 renal; greater than 100 µM in the test on ACHN renal; greater than 100 µM with CCRF-CEM leukemia; 9.11 µM in the test with HOP-92 NSCLC; 73.4 µM with HT29 colon; 0.291 µM with OVCAR-3 ovarian. Also, the TGI in the test with RPMI-8226 leukemia was greater than 100 µM; with RXF 393 renal, greater than 100 µM; with SK-MEL-28 melanoma, greater than 100 µM; in the test with TK-10 renal it was 38.9 µM.
As to `O=CN/C=C/c1ccccc1O`, the TGI in the test with A498 renal, in the test with ACHN renal, in the test with CCRF-CEM leukemia, in the test on HOP-92 NSCLC, with HT29 colon and in the test on OVCAR-3 ovarian was greater than 100 µM throughout. For the same compound, the TGI in the test with RPMI-8226 leukemia, in the test with RXF 393 renal, in the test on SK-MEL-28 melanoma and in the test on TK-10 renal was greater than 100 µM throughout.
For the compound `Cc1cccc2c(=O)c3c(sc12)c(NCCN)nc1ccccc13`, the GI50 in the test on A498 renal was 2.72 µM; with ACHN renal, 0.762 µM; in the test on CCRF-CEM leukemia, 0.878 µM; with HOP-92 NSCLC it was 0.691 µM; in the test with HT29 colon it was 0.819 µM; with OVCAR-3 ovarian it was 0.888 µM. The GI50 was 0.851 µM with RPMI-8226 leukemia, 1.03 µM in the test with RXF 393 renal, 0.936 µM in the test with SK-MEL-28 melanoma and 1.15 µM in the test with TK-10 renal. Also, the TGI with A498 renal is 6.92 µM; in the test with ACHN renal, 1.43 µM; in the test on CCRF-CEM leukemia, 1.83 µM; with HOP-92 NSCLC it was 2.45 µM; in the test on HT29 colon it was 1.61 µM; with OVCAR-3 ovarian, 1.79 µM. The TGI is 1.89 µM with RPMI-8226 leukemia, 2.75 µM in the test on RXF 393 renal, 1.7 µM in the test on SK-MEL-28 melanoma and 1.97 µM in the test with TK-10 renal.
For the compound `CCOC(=O)C1=C(N)Oc2cc(OC)ccc2C1c1ccc(F)c(F)c1` (stereo not drawn), the GI50 in the test with A498 renal was 1.29 µM; in the test on ACHN renal it was 5.74 µM; in the test on CCRF-CEM leukemia it was 2.26 µM; with HOP-92 NSCLC, 3.54 µM; in the test on HT29 colon it was 0.481 µM; in the test on OVCAR-3 ovarian, 0.497 µM. Further, the GI50 with RPMI-8226 leukemia was 2.73 µM; with RXF 393 renal, 1.55 µM; in the test with SK-MEL-28 melanoma, 6.44 µM; in the test with TK-10 renal it was 9.5 µM. The TGI in the test on A498 renal was found to be 11.9 µM; in the test with ACHN renal, 19.8 µM; in the test with CCRF-CEM leukemia it was 19.7 µM; in the test with HOP-92 NSCLC, 19.4 µM; in the test on HT29 colon, 11 µM; with OVCAR-3 ovarian, 6.09 µM. For the same compound, the total growth inhibition concentration (TGI) in the test on RPMI-8226 leukemia came out at 18.2 µM; in the test on RXF 393 renal it was 8.76 µM; in the test with SK-MEL-28 melanoma, 21.9 µM; in the test on TK-10 renal it was 21.8 µM.
For the compound `N=C1N=Nc2nc(C3(c4nc5n(c4O)C(=N)N=N5)Cc4ccccc4C3=O)c(O)n21` (stereo not drawn), the TGI is greater than 43.9 µM in the test on A498 renal; greater than 100 µM with ACHN renal; greater than 100 µM with CCRF-CEM leukemia; greater than 100 µM with HOP-92 NSCLC; greater than 100 µM with HT29 colon; greater than 100 µM in the test with OVCAR-3 ovarian. Besides, the TGI in the test with RPMI-8226 leukemia, in the test on RXF 393 renal, in the test with SK-MEL-28 melanoma and with TK-10 renal was greater than 100 µM each time.
Take `Cn1cc(-c2nc(-c3cn(C)c4ncccc34)cs2)c2cc(F)ccc21`: the GI50 in the test with A498 renal was 1.91 µM; in the test on ACHN renal it was 2.96 µM; with CCRF-CEM leukemia, 2.41 µM; in the test with HOP-92 NSCLC, 2.31 µM; in the test with OVCAR-3 ovarian, 0.379 µM; in the test on RPMI-8226 leukemia it was 3.65 µM. For the same compound, the values for the GI50 in the test with RXF 393 renal, in the test on SK-MEL-28 melanoma and in the test with TK-10 renal were 1.51 µM, 2.42 µM and 3.01 µM, respectively. Also, the TGI is 31.3 µM in the test with A498 renal; greater than 100 µM with ACHN renal; greater than 100 µM in the test on CCRF-CEM leukemia; 8.14 µM with HOP-92 NSCLC; 2.24 µM in the test with OVCAR-3 ovarian; greater than 100 µM in the test on RPMI-8226 leukemia. The TGI is 4.77 µM in the test with RXF 393 renal, greater than 100 µM in the test with SK-MEL-28 melanoma and 38 µM in the test with TK-10 renal.
As to `O=C(CCc1cc(-c2ccco2)n(-c2ccc([N+](=O)[O-])cc2[N+](=O)[O-])n1)Nc1ccccc1`, the TGI in the test on A498 renal, in the test with ACHN renal, with CCRF-CEM leukemia, in the test with HOP-92 NSCLC, in the test with HT29 colon and in the test with RPMI-8226 leukemia was greater than 100 µM in each case. Further, the TGI with RXF 393 renal and in the test with SK-MEL-28 melanoma was greater than 100 µM throughout.
Take `O=C(Nc1cccc(-n2cc(-c3ccncc3)c(-c3ccc(O)c(Cl)c3)n2)c1)Nc1ccc(Cl)c(C(F)(F)F)c1`: the GI50 is 2.47 µM with A498 renal; 2.64 µM with ACHN renal; 1.77 µM with CCRF-CEM leukemia; 0.455 µM in the test on HOP-92 NSCLC; 3.39 µM with HT29 colon; 1.67 µM with RPMI-8226 leukemia. Besides, the GI50 in the test on RXF 393 renal was 1.19 µM; with SK-MEL-28 melanoma, 1.67 µM; in the test on TK-10 renal, 2.96 µM. Moreover, the TGI in the test on A498 renal turned out to be 7.75 µM; with ACHN renal, 10.9 µM; in the test on CCRF-CEM leukemia, 6.31 µM; in the test with HOP-92 NSCLC, 2.93 µM; in the test with HT29 colon it was 11.3 µM; with RPMI-8226 leukemia, 4.63 µM. For the same compound, the TGI amounted to 3.74 µM in the test on RXF 393 renal, 3.8 µM in the test with SK-MEL-28 melanoma and 7.16 µM with TK-10 renal.
As to `Cc1ccc(S(=O)(=O)NC(=O)Nc2nc(Cl)cc(Cl)n2)cc1`, the TGI in the test on A498 renal, in the test with ACHN renal, in the test on CCRF-CEM leukemia, in the test with HOP-92 NSCLC, in the test with OVCAR-3 ovarian and in the test on RPMI-8226 leukemia was greater than 100 µM in each case. Also, the TGI with RXF 393 renal, with SK-MEL-28 melanoma and in the test on TK-10 renal was greater than 100 µM in each case.

A word on the GI50: it is the concentration giving 50% growth inhibition. For orientation: TGI means the concentration giving total growth inhibition. Higher therefore signals less potent growth arrest.
